Inconclusive results and toxic doses are left out. No stated cut-off is given here; in the data, active means T/C of 150% or more; inactive means T/C below 125%.
System: L1210 leukemia ip in BDF1 mice, survival T/C
Assay: NCI In Vivo Anticancer Drug Screen. Data for tumor model L1210 Leukemia (intraperitoneal) in B6D2F1 (BDF1) mice
Conditions: endpoint: mean survival time, higher = longer survival
Method in brief: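 Antitumor effect is assessed in tumor-bearing animals. Survival in the compound arm is compared with a vehicle-dosed control arm and expressed as their quotient.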

[1] = dose: 100.0 mg/kg/injection, schedule: Q04DX003 (ip), vehicle: saline
[2] = dose: 200.0 mg/kg/injection, schedule: Q04DX003 (ip), vehicle: saline
[3] = dose: 400.0 mg/kg/injection, schedule: Q04DX003 (ip), vehicle: saline
[4] = dose: 100.0 mg/kg/injection, schedule: Q04DX003 (ip), vehicle: Klucel (hydroxypropylcellulose) (HPC)
[5] = dose: 200.0 mg/kg/injection, schedule: Q04DX003 (ip), vehicle: Klucel (hydroxypropylcellulose) (HPC)
[6] = dose: 100.0 mg/kg/injection, schedule: Q04DX003 (ip), vehicle: saline with Tween-80
[7] = dose: 200.0 mg/kg/injection, schedule: Q04DX003 (ip), vehicle: saline with Tween-80
[8] = dose: 100.0 mg/kg/injection, schedule: Q01DX009 (ip), vehicle: saline with Tween-80
[9] = dose: 200.0 mg/kg/injection, schedule: Q01DX009 (ip), vehicle: saline with Tween-80
[10] = dose: 75.0 mg/kg/injection, schedule: Q01DX001 (ip), vehicle: saline
[11] = dose: 50.0 mg/kg/injection, schedule: Q01DX009 (ip), vehicle: saline
[12] = dose: 100.0 mg/kg/injection, schedule: Q01DX009 (ip), vehicle: saline
[13] = dose: 100.0 mg/kg/injection, schedule: Q04DX002 (ip), vehicle: saline with Tween-80
[14] = dose: 200.0 mg/kg/injection, schedule: Q04DX002 (ip), vehicle: saline with Tween-80
[15] = dose: 400.0 mg/kg/injection, schedule: Q04DX002 (ip), vehicle: saline with Tween-80

Measured: T/C

C/C=C\CC(C(C)=O)C(=O)OCC (stereo unspecified)
inactive: dose: 75.0 mg/kg/injection, schedule: Q01DX009 (ip), vehicle: saline 92 % of control | [1] 105 % of control | dose: 150.0 mg/kg/injection, schedule: Q01DX009 (ip), vehicle: saline 92 % of control | [2] 91 % of control | dose: 300.0 mg/kg/injection, schedule: Q01DX009 (ip), vehicle: saline 97 % of control | [3] 104 % of control

CCCCN=C=NCCC[N+](C)(C)C
inactive: [4] 98 % of control | [5] 107 % of control

CCCCCCCCCCCCNC(=O)CCl
inactive: dose: 100.0 mg/kg/injection, schedule: Q01DX009 (ip), vehicle: Klucel (hydroxypropylcellulose) (HPC) 87 % of control | [4] 91 % of control | dose: 200.0 mg/kg/injection, schedule: Q01DX009 (ip), vehicle: Klucel (hydroxypropylcellulose) (HPC) 90 % of control | [5] 89 % of control | dose: 400.0 mg/kg/injection, schedule: Q01DX009 (ip), vehicle: Klucel (hydroxypropylcellulose) (HPC) 91 % of control

CCCn1nnc2ccccc2c1=Nc1ccccc1
inactive: [1] 99 % of control | [2] 94 % of control | [3] 103 % of control

COc1ccc(Cc2ccc3[nH]c(=O)cc(C)c3c2)cc1S(=O)(=O)O
inactive: dose: 100.0 mg/kg/injection, schedule: Q01DX001 (ip), vehicle: saline 104 % of control | dose: 200.0 mg/kg/injection, schedule: Q01DX001 (ip), vehicle: saline 105 % of control | dose: 400.0 mg/kg/injection, schedule: Q01DX001 (ip), vehicle: saline 94 % of control

Nc1nc(N)nc(N)n1 (tested in a mixture with another compound)
inactive: [6] 89 % of control | [7] 89 % of control

Cc1c2c(c(C)c3c4c(oc13)CCCC4)C=NCC2
inactive: dose: 100.0 mg/kg/injection, schedule: Q01DX001 (ip), vehicle: carboxymethylcellulose (CMC) 95 % of control | dose: 200.0 mg/kg/injection, schedule: Q01DX001 (ip), vehicle: carboxymethylcellulose (CMC) 92 % of control | dose: 400.0 mg/kg/injection, schedule: Q01DX001 (ip), vehicle: carboxymethylcellulose (CMC) 92 % of control

Nc1c(Cl)[nH]cnc1=S
inactive: dose: 224.0 mg/kg/injection, schedule: Q01DX Z (ip), vehicle: methylcellulose (MC) 98 % of control | dose: 334.0 mg/kg/injection, schedule: Q01DX Z (ip), vehicle: methylcellulose (MC) 94 % of control | dose: 500.0 mg/kg/injection, schedule: Q01DX Z (ip), vehicle: methylcellulose (MC) 94 % of control | dose: 750.0 mg/kg/injection, schedule: Q01DX Z (ip), vehicle: methylcellulose (MC) 94 % of control

CSc1cc(C)c(OC(=O)Nc2ccccc2F)c(CO)c1
inactive: [8] 97 % of control | [9] 98 % of control | dose: 400.0 mg/kg/injection, schedule: Q01DX009 (ip), vehicle: saline with Tween-80 114 % of control

C/C=C/CC1(C(C)C)C(=O)NC(=S)NC1=O
inactive: [10] 93 % of control

CS(=O)(=O)OCCC#N
inactive: [11] 103 % of control | [12] 101 % of control | dose: 100.0 mg/kg/injection, schedule: Q04DX003 (ip), vehicle: alcohol 102 % of control | dose: 200.0 mg/kg/injection, schedule: Q04DX003 (ip), vehicle: alcohol 93 % of control

CC(=O)Nc1ccc(S(=O)(=O)NO)cc1
inactive: [11] 96 % of control | [12] 100 % of control | [1] 100 % of control | dose: 200.0 mg/kg/injection, schedule: Q01DX009 (ip), vehicle: saline 94 % of control | [2] 103 % of control | [3] 101 % of control

N=C1N=C(N)C(CCCOc2cc(Cl)ccc2Cl)(CCCOc2cc(Cl)ccc2Cl)C(N)=N1
inactive: [4] 94 % of control | [5] 106 % of control | dose: 400.0 mg/kg/injection, schedule: Q04DX003 (ip), vehicle: Klucel (hydroxypropylcellulose) (HPC) 87 % of control

O=C1C2CCC1C(N1CCCC1)CC2 (stereo unspecified)
inactive: [10] 101 % of control | dose: 150.0 mg/kg/injection, schedule: Q01DX001 (ip), vehicle: saline 104 % of control

CCCCSC(C)(SCCCC)SCCCC
inactive: [13] 97 % of control | [14] 101 % of control | [15] 116 % of control

O=C(N/N=C/c1ccc(-c2ccccc2)cc1)Nc1ccccc1
inactive: [8] 92 % of control | [6] 92 % of control | [9] 96 % of control | [7] 100 % of control | dose: 400.0 mg/kg/injection, schedule: Q04DX003 (ip), vehicle: saline with Tween-80 93 % of control

O=P(O)(O)c1ccc(N=Nc2ccc(P(=O)(O)O)cc2)cc1
inactive: [1] 94 % of control | [2] 107 % of control | [3] 97 % of control

CC12C(=O)C(C)(C(c3ccccc3)=C1c1ccccc1)C1C=CN(S(C)(=O)=O)C=CC12 (stereo unspecified)
inactive: [13] 86 % of control | [14] 88 % of control | [15] 86 % of control
